Here are results for 22 compounds from patent publication US12473304B2, “Heterocyclic PAD4 inhibitors” (BRISTOL-MYERS SQUIBB COMPANY, priority 2020, dated 2025).

The experiment addresses human PAD4 (hPAD4) (Homo sapiens (Human), UniProt Q9UM07). Nature of the experiment: RFMS Human PAD4 Functional Assay 1. The experiment is classed as biochemical. The note with it: RFMS assay 1; 5 nM hPAD4, 250 μM BAEE substrate, 50 μM calcium, 37° C. In a few lines:
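Citrullination product read by RapidFire triple-quad MRM against a modified-citrulline internal standard, after TCA stop and 30 min phenyl glyoxal step at 37 °C. Reaction: 250 μM BAEE, 5 nM human PAD4, 90 min at 37 °C, pH 7.5 HEPES buffer with 50 μM calcium and 5 μM TPEN, following 30 min compound–enzyme preincubation (max 50 μM).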

Structures are written as SMILES.

As usually defined, the IC50 is the midpoint of a concentration-inhibition curve.

Chain of human PAD4 (hPAD4) (Q9UM07 whole entry): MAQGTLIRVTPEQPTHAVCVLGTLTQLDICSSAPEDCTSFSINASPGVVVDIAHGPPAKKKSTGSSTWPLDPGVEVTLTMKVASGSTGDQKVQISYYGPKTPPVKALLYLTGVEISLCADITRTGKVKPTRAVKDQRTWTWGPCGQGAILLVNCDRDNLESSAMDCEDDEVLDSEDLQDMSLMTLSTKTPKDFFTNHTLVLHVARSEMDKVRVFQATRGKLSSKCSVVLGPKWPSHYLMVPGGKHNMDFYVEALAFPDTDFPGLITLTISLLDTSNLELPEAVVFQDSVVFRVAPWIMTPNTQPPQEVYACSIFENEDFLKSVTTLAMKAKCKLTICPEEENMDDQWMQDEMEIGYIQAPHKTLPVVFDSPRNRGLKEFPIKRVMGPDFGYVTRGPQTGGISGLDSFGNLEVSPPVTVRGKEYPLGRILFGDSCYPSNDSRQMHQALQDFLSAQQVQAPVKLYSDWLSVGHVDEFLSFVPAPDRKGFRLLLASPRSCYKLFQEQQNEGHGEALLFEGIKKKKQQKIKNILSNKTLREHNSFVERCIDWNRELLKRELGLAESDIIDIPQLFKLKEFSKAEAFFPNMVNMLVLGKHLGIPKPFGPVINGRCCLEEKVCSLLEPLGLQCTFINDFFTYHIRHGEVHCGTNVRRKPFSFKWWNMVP

As for `Cc1cc(-c2ccc3cc(-c4nn5cc(C(=O)N6CC7CCC6[C@@H]7N)ccc5c4C)n(CC4CC4)c3c2)c(F)cc1C(N)=O` (stereo partly drawn) [Example 331, 4-(2-{6-[(7R)-7-Amino-2-azabicyclo[2.2.1]heptane-2-carbonyl]-3-methylpyrazolo[1,5-a]pyridin-2-yl}-1-(cyclopropylmethyl)-1H-indol-6-yl)-5-fluoro-2-methylbenzamide], the IC50 is 60 nM. As for `Cc1c(-c2cc3cccc(C4CCN(C(=O)[C@@H]5CCC[C@H](O)C5)CC4)c3n2CC2CC2)nn2cc(C(=O)N3C[C@H](N)C[C@@H](F)C3)ccc12` [Example 449, ((3R,5R)-3-amino-5-fluoropiperidin-1-yl)(2-(1-(cyclopropylmethyl)-7-(1-((1R,3S)-3-hydroxycyclohexane-1-carbonyl)piperidin-4-yl)-1H-indol-2-yl)-3-methylpyrazolo[1,5-a]pyridin-6-yl)methanone], the figure is 50 nM; as for `Cc1cc(C(N)=O)c(F)cc1-c1ccc2cc(-c3nn4cc(C(=O)N5CCC[C@@H](N)C5)cc(F)c4c3C)n(CC3CC3)c2n1` [Example 277, 4-(2-{6-[(3R)-3-Aminopiperidine-1-carbonyl]-4-fluoro-3-methylpyrazolo[1,5-a]pyridin-2-yl}-1-(cyclopropylmethyl)-1H-pyrrolo[2,3-b]pyridin-6-yl)-2-fluoro-5-methylbenzamide], 220 nM. As for `Cc1c(-c2cc3ccnc(OCCn4cncn4)c3n2CC2CC2)nn2cc(C(=O)N3C[C@H](N)C[C@@H](F)C3)ccc12` [Example 610, (2-(7-(2-(1H-1,2,4-Triazol-1-yl)ethoxy)-1-(cyclopropylmethyl)-1H-pyrrolo[2,3-c]pyridin-2-yl)-3-methylpyrazolo[1,5-a]pyridin-6-yl)((3R,5R)-3-amino-5-fluoropiperidin-1-yl)methanone], the figure is 430 nM; as for `Cc1c(-c2cc3ccc(N4CCC(S(C)(=O)=O)CC4)cc3n2CC2CC2)nn2cc(C(=O)N3CC4CCC3[C@@H]4N)ccc12` (stereo partly drawn) [Example 351, (7R)-2-{2-[1-(Cyclopropylmethyl)-6-(4-methanesulfonylpiperidin-1-yl)-1H-indol-2-yl]-3-methylpyrazolo[1,5-a]pyridine-6-carbonyl}-2-azabicyclo[2.2.1]heptan-7-amine], 100 nM; as for `CC(=O)NCc1cccc(-c2ccc3cc(-c4nn5cc(C(=O)N6CCC[C@@H](N)C6)ccc5c4C)n(CC4CC4)c3c2)c1` [Example 343, N-{[3-(2-{6-[(3R)-3-Aminopiperidine-1-carbonyl]-3-methylpyrazolo[1,5-a]pyridin-2-yl}-1-(cyclopropylmethyl)-1H-indol-6-yl)phenyl]methyl}acetamide], 50 nM. As for `COc1cc(C(=O)N2CCC[C@@H](N)C2)cn2nc(-c3cc4cc(F)cc(C5CCN(C(C)=O)CC5)c4n3CC3CC3)c(C)c12` [Example 483, (R)-1-(4-(2-(6-(3-Aminopiperidine-1-carbonyl)-4-methoxy-3-methylpyrazolo[1,5-a]pyridin-2-yl)-1-(cyclopropylmethyl)-5-fluoro-1H-indol-7-yl)piperidin-1-yl)ethan-1-one], the figure is 150 nM. On to `Cc1c(-c2cc3ccc(-c4ccc(C(N)=O)c(F)c4)cc3n2CC2CC2)oc2cc(C(=O)N3C[C@H](N)C[C@@H](F)C3)ccc12` [Example 196, 4-(2-(6-((3R,5R)-3-Amino-5-fluoropiperidine-1-carbonyl)-3-methylbenzofuran-2-yl)-1-(cyclopropylmethyl)-1H-indol-6-yl)-2-fluorobenzamide], for which the IC50 came out at 384 nM. As for `Cc1c(-c2cc3ccc(-c4ccc5c(c4)C(=O)NC5)nc3n2CC2CC2)nn2cc(C(=O)N3CCC[C@@H](N)C3)cc(F)c12` [Example 285, 6-(2-{6-[(3R)-3-Aminopiperidine-1-carbonyl]-4-fluoro-3-methylpyrazolo[1,5-a]pyridin-2-yl}-1-(cyclopropylmethyl)-1H-pyrrolo[2,3-b]pyridin-6-yl)-2,3-dihydro-1H-isoindol-1-one], the figure is 1270 nM. As for `Cc1c(-c2cc3ccc(-c4ccc(C(N)=O)c(F)c4)nc3n2CC2CC2)nn2cc(C(=O)N3C[C@H](N)C[C@@H](F)C3)cc(F)c12` [Example 56, 4-(2-(6-((3R,5R)-3-Amino-5-fluoropiperidine-1-carbonyl)-4-fluoro-3-methylpyrazolo[1,5-a]pyridin-2-yl)-1-(cyclopropylmethyl)-1H-pyrrolo[2,3-b]pyridin-6-yl)-2-fluorobenzamide], the figure is 468 nM.

`CC(=O)N(C)C1CCN(c2ccc3cc(-c4nn5cc(C(=O)N6CCC[C@@H](N)C6)cc(F)c5c4C)n(CC4CC4)c3n2)CC1` [Example 271, N-[1-(2-{6-[(3R)-3-Aminopiperidine-1-carbonyl]-4-fluoro-3-methylpyrazolo[1,5-a]pyridin-2-yl}-1-(cyclopropylmethyl)-1H-pyrrolo[2,3-b]pyridin-6-yl)piperidin-4-yl]-N-methylacetamide]: the IC50 came out at 2070 nM. As for `Cc1c(-c2cc3ccc(-c4ccc(C(N)=O)cc4C(F)(F)F)cc3n2CC2CC2)nn2cc(C(=O)N3CC4CCC3[C@@H]4N)ccc12` (stereo partly drawn) [Example 335, 4-(2-{6-[(7R)-7-Amino-2-azabicyclo[2.2.1]heptane-2-carbonyl]-3-methylpyrazolo[1,5-a]pyridin-2-yl}-1-(cyclopropylmethyl)-1H-indol-6-yl)-3-(trifluoromethyl)benzamide], the figure is 60 nM. As for `COc1cc(C(=O)N2CC3CCC2[C@@H]3N)cn2nc(-c3cc4ccc(-c5ccc(C(N)=O)c(C)c5)nc4n3CC3CC3)c(C)c12` (stereo partly drawn) [Example 206, 4-(2-{6-[(7R)-7-Amino-2-azabicyclo[2.2.1]heptane-2-carbonyl]-4-methoxy-3-methylpyrazolo[1,5-a]pyridin-2-yl}-1-(cyclopropylmethyl)-1H-pyrrolo[2,3-b]pyridin-6-yl)-2-methylbenzamide], the figure is 70 nM.

Consider `Cc1c(-c2cc3ccc(-c4ccc5[nH]ncc5c4)nc3n2CC2CC2)nn2cc(C(=O)N3CCC[C@@H](N)C3)cc(Cl)c12` [Example 292, (3R)-1-{4-chloro-2-[1-(Cyclopropylmethyl)-6-(1H-indazol-5-yl)-1H-pyrrolo[2,3-b]pyridin-2-yl]-3-methylpyrazolo[1,5-a]pyridine-6-carbonyl}piperidin-3-amine], for which the IC50 was 2350 nM. Consider `Cc1c(-c2cc3ccc(N4CCC(O)CC4)nc3n2CC2CC2)nn2cc(C(=O)N3C[C@H](N)C[C@@H](F)C3)ccc12` [Example 88, ((3R,5R)-3-Amino-5-fluoropiperidin-1-yl)(2-(1-(cyclopropylmethyl)-6-(4-hydroxypiperidin-1-yl)-1H-pyrrolo[2,3-b]pyridin-2-yl)-3-methylpyrazolo[1,5-a]pyridin-6-yl)methanone], for which the IC50 was 1680 nM. For the compound `COc1cc(C(=O)N2C[C@H](N)C[C@@H](F)C2)cc2oc(-c3cc4ccc(-c5ccc(C(N)=O)c(Cl)c5)cc4n3CC3CC3)c(C)c12` [Example 162, 4-(2-(6-((3R,5R)-3-Amino-5-fluoropiperidine-1-carbonyl)-4-methoxy-3-methylbenzofuran-2-yl)-1-(cyclopropylmethyl)-1H-indol-6-yl)-2-chlorobenzamide], the IC50 worked out at 2290 nM. For `CO[C@@H](C)C(=O)N1CC(c2cccc3cc(-c4nn5cc(C(=O)N6C[C@H](N)C[C@@H](F)C6)ccc5c4C)n(CC4CC4)c23)C1` [Example 542, (S)-1-(3-(2-(6-((3R,5R)-3-Amino-5-fluoropiperidine-1-carbonyl)-3-methylpyrazolo[1,5-a]pyridin-2-yl)-1-(cyclopropylmethyl)-1H-indol-7-yl)azetidin-1-yl)-2-methoxypropan-1-one], the IC50 turned out to be 580 nM.

As to `COCC(=O)N1CC(c2cccc3cc(-c4nn5cc(C(=O)N6CCC[C@@H](N)C6)cc(OC)c5c4C)n(CC4CC4)c23)C1` [Example 528, (R)-1-(3-(2-(6-(3-Aminopiperidine-1-carbonyl)-4-methoxy-3-methylpyrazolo[1,5-a]pyridin-2-yl)-1-(cyclopropylmethyl)-1H-indol-7-yl)azetidin-1-yl)-2-methoxyethan-1-one], the concentration for half-maximal inhibition (IC50) stood at 15000 nM.

Take `COc1cc(C(=O)N2C[C@H](N)C[C@@H](F)C2)cn2nc(-c3cc4ccc(-c5ccc6[nH]ncc6c5)cc4n3CC3CC3)c(C)c12` [Example 218, (3R,5R)-1-{2-[1-(Cyclopropylmethyl)-6-(1H-indazol-5-yl)-1H-indol-2-yl]-4-methoxy-3-methylpyrazolo[1,5-a]pyridine-6-carbonyl}-5-fluoropiperidin-3-amine]: the IC50 was 550 nM. Take `COCC(=O)N1CCC(c2cc(F)cc3cc(-c4nn5cc(C(=O)N6C[C@H](N)C[C@@H](F)C6)cc(OC)c5c4C)n(CC4CC4)c23)CC1` [Example 481, 1-(4-(2-(6-((3R,5R)-3-Amino-5-fluoropiperidine-1-carbonyl)-4-methoxy-3-methylpyrazolo[1,5-a]pyridin-2-yl)-1-(cyclopropylmethyl)-5-fluoro-1H-indol-7-yl)piperidin-1-yl)-2-methoxyethan-1-one]: the IC50 worked out at 120 nM. As for `Cc1c(-c2cc3ccc(-c4ccc5c(c4)CNC5=O)cc3n2CC2CC2)oc2cc(C(=O)N3CC4CCC3[C@@H]4N)ccc12` (stereo partly drawn) [Example 178, 5-(2-(6-((7R)-7-Amino-2-azabicyclo[2.2.1]heptane-2-carbonyl)-3-methylbenzofuran-2-yl)-1-(cyclopropylmethyl)-1H-indol-6-yl)isoindolin-1-one], the figure is 153 nM; as for `Cc1c(-c2cc3ccc(Cl)nc3n2CC2CC2)nn2cc(C(=O)N3C[C@H](N)C[C@@H](F)C3)cc(Cl)c12` [Example 289, (3R,5R)-1-{4-Chloro-2-[6-chloro-1-(cyclopropylmethyl)-1H-pyrrolo[2,3-b]pyridin-2-yl]-3-methylpyrazolo[1,5-a]pyridine-6-carbonyl}-5-fluoropiperidin-3-amine], 3580 nM.
